Results on 3 compounds are retold here after PMC9862096, “Interaction of a Homologous Series of Amphiphiles with P-glycoprotein in a Membrane Environment—Contributions of Polar and Non-Polar Interactions” (Pharmaceutics, 2023).

Each structure is given as a SMILES string.

The subject of data set [1] is P–gp. The data set is described as follows: Partition coefficient to membrane protein from Equations (1) and (2), binding to P–gp only. It is filed as physicochemical, mouse. As to conditions: binding to the protein P–gp only; for KPW→P: aqueous phase to protein; for KPLb→P: lipid bilayer to protein. From the text: (§1) From the partition coefficient obtained for the native membranes, KPW→M , and that for the model lipid bilayers, KPW→Lb , one can calculate the partition coefficient between the aqueous phase and the proteins in the membrane, KPW→P , and from the lipid bilayer to the proteins, KPLb→P , Equations (1) and (2), [40]. (1) KPW→M VM=KPW→PVP+KPW→Lb VLb (2) KPLb→P=KPW→P/KPW→Lb
(§2) In Equation (1) it is necessary to include the volume occupied by the proteins, and the values obtained will, therefore, depend on whether it is considered that the amphiphile may interact with all proteins in the membrane or with P–gp only.

For data set [2] the following is noted: cited from earlier work.
A short description of data set [3]: Association (partition) with model membranes (LUVs POPE:POPC:POPS 45:35:20). It is filed as physicochemical. As to conditions: aqueous phase to model lipid bilayer. Here is the method:
The model membranes with a phospholipid composition representative of that of the native membranes (POPE:POPC:POPS 45:35 20) were prepared from stock solutions of the required lipids in chloroform or in chloroform/methanol (87/13, v/v), as described before. The solvent-free lipid residue was hydrated at 40 °C with previously heated simplified ATPase assay buffer (with all components except Ouabain and DTT). Large Unilamelar Vesicles were prepared by extrusion through two-staked polycarbonate filters (100 nm pore diameter), and the size of the LUVs was analyzed by dynamic light scattering (Zetasizer Nano ZS, Malvern, UK) being close to the filter pore size.
The membranes were diluted to the chosen concentration with simplified ATPase assay buffer and warmed to 37 °C. The NBD amphiphiles were added from stocks in DMSO (final DMSO 1% v/v) by squirting the required volume into the membrane solution under gentle vortex. Fluorescence intensity was measured after 15 to 30 min incubation at 37 °C using a Cary Eclipse spectrofluorimeter (Varian, Singapore). The path length of the sample container was selected to guarantee that scattering at the excitation wavelength was smaller than 0.1 while maintaining a good signal/noise ratio (3, 5, or 10 mm).
The increase in fluorescence of the NBD amphiphiles when associated with the model membranes was well described by a simple partition (Equation (S3)). The low affinity of the less lipophilic amphiphiles for the native membranes required the use of high membrane concentrations, and the fluorescence was measured with the plate reader SpectraMax iD5 (Molecular Devices, Berkshire, UK), where the reading setup is not very sensitive to scatter. To guarantee that the high scatter intensity was not leading to artifacts in the measured fluorescence intensity of NBD–C4, titrations of NBD-C6 and NBD–C8 were also performed in the same plate. For these two latter amphiphiles, the results obtained for the partition coefficient were similar to those obtained for experiments with low scatter intensity. A small decrease in the fluorescence intensity from NBD–C8 was nevertheless observed at very high scatter intensities (OD ≥ 0.5), which was used to correct the signal from the less lipophilic amphiphiles, see Supplementary Information (Figure S5 and Equation (S4)). The molar volume considered for the lipid was 0.8 dm^3/mol, and 1.2 g/mL was considered for the density of the membrane proteins.
S3 – Partition of the NBD amphiphiles to lipid bilayers and native membranes
The fluorescence increase that accompanies the association of the NBD amphiphiles with the
model membra nes was well defined by a simple partition, equation S3.
If 1540 nm Lb= + S3, KVL[]
where IfW and If M are respec ti vel y the fluorescence intensity when all fluorescent amphiphile is
in the aqueous phase and ass oci ated with the membranes, LbK is the partition co eff icient P
between the aqueous and the lipid bilayer, V is the molar vo l u m e of the lipid when in the lipid L
bi l ayer, and [L] is the lipid concentration. […]

A short description of data set [4]: Partition coefficient to membrane proteins from Equations (1) and (2), all membrane proteins with equal affinity. It is filed as physicochemical, High-Five insect cells. As to conditions: binding to all membrane proteins with equal affinity; for KPW→P: aqueous phase to proteins; for KPLb→P: lipid bilayer to proteins.
Description: as §1, §2

The conditions of data set [5]: cited from earlier work; for critical aggregation concentration (CAC): 25 °C, aqueous; for increase of CAC in the presence of co-solvent: e.g. 1 M trehalose.
A short description of data set [6]: Critical aggregation concentration from NBD fluorescence (literature). As to conditions: extrapolated from the co-solvent effect on NBD–Cn. It is filed as physicochemical. From the text: One important aspect which is usually overlooked in the studies of interactions with P–gp is whether the molecule of interest is in its monomeric state or aggregated. Some studies with detergents have included information regarding the formation of micelles and concluded that a complex effect on the ATPase activity (enhancement and inhibition) is observed even for concentrations below their CMC [21, 32, 91]. However, small aggregates are formed at concentrations several orders of magnitude smaller than the concentration at which micelles are detectable (their CMC). The aggregation behavior of the NBD amphiphiles used in this study was characterized by changes in the fluorescence properties of the NBD group and is, therefore, sensitive to the formation of small aggregates including dimers. The critical aggregation concentrations (CAC) at 25 °C are 1, 4, and 250 μM for NBD–C8, NBD–LysoMPE, and NBD–C4, respectively. […] An increase to at least 24 µM is thus predicted for NBD–LysoMPE.

Setting [7] is: section: binding to all membrane proteins with equal affinity.
Setting [8] is: section: binding to the protein P–gp only.

With `CCCCCCCCNc1ccc([N+](=O)[O-])c2nonc12` [NBD–C8], the KPW→P in data set [1] is reported as 2.3 × 10^5; in data set [4] it was 2.3 × 10^3. In addition, the KPLb→P in data set [1] was found to be 12; in data set [4], 0.12. In data set [2] (Section 3.4 and ref 77), the “time for equilibration between both membrane leaflets (translocation)” value is listed as “within a few seconds”. In addition, the KPW→Lb in data set [3] (setting [7]) and in data set [3] (setting [8]) was 1.9 × 10^4 in each case. For the same compound, the “critical aggregation concentration (CAC)” value in data set [5] was 1 µM. Further, the “increase of CAC in the presence of co-solvent” value in data set [5] is listed as 4 fold.

In the case of `CCCCCCCCCCCCCC(=O)OCC(O)COP(=O)(O)OCCNc1ccc([N+](=O)[O-])c2nonc12` (centres unmarked) [NBD–LysoMPE], in data set [2], the “characteristic time of translocation between membrane leaflets” value is given as “several hours”. Also, the “CAC predicted in the presence of co-solvents” value in data set [6] was “at least 24 µM”. The “critical aggregation concentration (CAC)” value in data set [5] is 4 µM.

As for `CCCCNc1ccc([N+](=O)[O-])c2nonc12` [NBD–C4], in data set [1], the KPW→P was 6.9 × 10^4 and the KPLb→P was 176. For the same compound, in data set [3] (setting [7]), the KPW→Lb is 3.9 × 10^2. The KPW→Lb in data set [3] (setting [8]) was 3.9 × 10^2. Moreover, in data set [4], the KPW→P is given as 6.9 × 10^2 and the KPLb→P is on record as 1.8. Besides, in data set [5], the “critical aggregation concentration (CAC)” value is 250 µM and the “increase of CAC in the presence of co-solvent” value is reported as “not significantly affected”.
